# Results published in patent publication US10626081B2, “Farnesoid X receptor agonists and uses thereof” (Metacrine, Inc., priority 2015, dated 2020).
# pEC50: −log10 of the molar value.
# Tests used:
# [1] = target: T1, FXR (Homo sapiens, UniProt Q96RI1); assay: In Vitro FXR Assay (TK): TK-ECRE-luc reporter in transfected CV-1 cells; assay type: cell-based; conditions: CV-1 cells transfected with hFXR, hRXR, 18 h incubation, luminescence
# T1 construct: expressed in transfected cells; host or cells: CV-1 cells
# T1 sequence (Q96RI1 1-486): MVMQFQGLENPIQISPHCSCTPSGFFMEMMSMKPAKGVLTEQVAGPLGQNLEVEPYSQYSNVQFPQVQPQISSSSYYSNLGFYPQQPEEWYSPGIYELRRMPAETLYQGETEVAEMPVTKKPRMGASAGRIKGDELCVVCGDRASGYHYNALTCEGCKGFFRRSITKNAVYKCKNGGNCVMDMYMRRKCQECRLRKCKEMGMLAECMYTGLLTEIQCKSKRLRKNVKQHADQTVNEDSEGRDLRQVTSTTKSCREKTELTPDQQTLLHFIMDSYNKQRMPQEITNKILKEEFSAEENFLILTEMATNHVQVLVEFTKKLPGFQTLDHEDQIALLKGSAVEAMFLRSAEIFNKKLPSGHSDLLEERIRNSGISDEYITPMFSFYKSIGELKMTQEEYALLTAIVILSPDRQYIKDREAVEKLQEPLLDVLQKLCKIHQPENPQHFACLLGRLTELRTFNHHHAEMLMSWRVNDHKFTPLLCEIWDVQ
# T1 sequence (P19793 1-462 partner): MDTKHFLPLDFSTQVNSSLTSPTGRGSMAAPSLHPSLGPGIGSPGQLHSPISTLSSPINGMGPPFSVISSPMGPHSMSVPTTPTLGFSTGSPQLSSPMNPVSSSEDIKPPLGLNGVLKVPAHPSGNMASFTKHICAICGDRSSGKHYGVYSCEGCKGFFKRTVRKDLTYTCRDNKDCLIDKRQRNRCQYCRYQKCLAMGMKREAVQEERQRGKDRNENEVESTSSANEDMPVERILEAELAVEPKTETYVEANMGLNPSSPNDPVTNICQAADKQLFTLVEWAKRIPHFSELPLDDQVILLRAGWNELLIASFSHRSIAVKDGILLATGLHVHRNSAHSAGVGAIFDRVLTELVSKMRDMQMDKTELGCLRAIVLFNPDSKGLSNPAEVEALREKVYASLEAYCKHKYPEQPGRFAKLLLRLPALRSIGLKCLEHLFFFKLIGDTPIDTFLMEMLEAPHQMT
# How it was run: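 CV-1 cells in charcoal-stripped FBS medium were transiently cotransfected with hFXR, hRXR, TK-ECRE-luc and pCMX-YFP plasmids. After 18 h, compounds serially diluted in DMSO were added for 18 h at 37 °C, 5% CO2, then cells were lysed and luminescence read.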
# [2] = target: T1, FXR; assay: In Vitro FXR Assay (PGL3): luciferase reporter in transfected CV-1 cells; assay type: cell-based; conditions: CV-1 cells transfected with hFXR, hRXR, PGL3-ECRE*6-luc; 18 h incubation; luminescence
# How it was run: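 CV-1 cells in charcoal-stripped FBS were transiently co-transfected with full-length human FXR, RXR, an ECRE×6-luciferase reporter, β-gal and YFP plasmids. Transfected cells were reseeded onto half-log compound dilutions and incubated 18 h. Luciferase luminescence was read after lysis, and EC50 was determined.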
Structure (SMILES),pEC50 [1],Cmpd/Fex (ratio of the EC50 for the test compound relative to the EC50 of the Fexaramine control) [2]
"COC(=O)/C=C/c1cccc(N(Cc2ccc(N3CCCCC3)cc2)C(=O)C2CCCCC2)c1 [compound 78, (E)-Methyl 3-(3-(N-(4-(piperidin-1-yl)benzyl)cyclohexanecarboxamido)phenyl) acrylate]",5.00 to 6.00,++ (‘++’ means Cmpd/Fex > 10 & < 100)
"COC(=O)/C=C/c1cccc(N(Cc2cccc3ccccc23)C(=O)C2CCCCC2)c1 [compound 80, (E)-Methyl 3-(3-(N-(naphthalen-1-ylmethyl)cyclohexanecarboxamido)phenyl) acrylate]",< 5.00,+ (‘+’ means Cmpd/Fex > 100)
"COC(=O)/C=C/c1cccc(N(Cc2cccc(-c3ccccc3)c2)C(=O)C2CCCCC2)c1 [compound 82, (E)-Methyl 3-(3-(N-([1,1′-biphenyl]-3-ylmethyl)cyclohexanecarboxamido)phenyl) acrylate]",< 5.00,+ (‘+’ means Cmpd/Fex > 100)
"CCOC(=O)/C=C/c1cccc(N(Cc2ccc(-c3ccc(N(C)C)cc3)cc2)C(=O)C2CCCCC2)c1 [compound 84, (E)-Ethyl 3-(3-(N-((4′-(dimethylamino)-[1,1′-biphenyl]-4-yl)methyl)cyclohexanecarboxamido)phenyl) acrylate]",≥ 6.00,+++ (‘+++’ means Cmpd/Fex < 10)
"CCc1cc(/C=C/C(=O)OC)cc(N(Cc2ccc(-c3ccc(N(C)C)cc3)cc2)C(=O)C2CCCCC2)c1 [compound 85, (E)-Methyl 3-(3-(N-((4′-(dimethylamino)-[1,1′-biphenyl]-4-yl)methyl)cyclohexanecarboxamido)-5-ethylphenyl)acrylate]",5.00 to 6.00,+++ (‘+++’ means Cmpd/Fex < 10)
"CN(C)c1ccc(-c2ccc(CN(C(=O)C3CCCCC3)c3cccc(/C=C/C(=O)OCCO)c3)cc2)cc1 [compound 86, (E)-2-Hydroxyethyl 3-(3-(N-((4′-(dimethylamino)-[1,1′-biphenyl]-4-yl)methyl)cyclohexanecarboxamido)phenyl) acrylate]",5.00 to 6.00,+++ (‘+++’ means Cmpd/Fex < 10)
"COC(=O)C#Cc1cccc(N(Cc2ccc(-c3ccc(N(C)C)cc3)cc2)C(=O)C2CCCCC2)c1 [compound 87, Methyl 3-(3-(N-((4′-(Dimethylamino)-[1,1′-biphenyl]-4-yl)methyl)cyclohexanecarboxamido)phenyl) propiolate]",≥ 6.00,+++ (‘+++’ means Cmpd/Fex < 10)

# More lines, now with the values ahead:
pEC50 [1],Cmpd/Fex (ratio of the EC50 for the test compound relative to the EC50 of the Fexaramine control) [2],Structure (SMILES)
< 5.00,+ (‘+’ means Cmpd/Fex > 100),"COC(=O)/C=C/c1cccc(N(Cc2ccccc2-c2ccccc2)C(=O)C2CCCCC2)c1 [compound 81, (E)-Methyl 3-(3-(N-([1,1′-biphenyl]-2-ylmethyl)cyclohexanecarboxamido)phenyl) acrylate]"
5.00 to 6.00,+++ (‘+++’ means Cmpd/Fex < 10),"CC(C)OC(=O)/C=C/c1cccc(N(Cc2ccc(-c3ccc(N(C)C)cc3)cc2)C(=O)C2CCCCC2)c1 [compound 83, (E)-iso-Propyl 3-(3-(N-((4′-(dimethylamino)-[1,1′-biphenyl]-4-yl)methyl)cyclohexanecarboxamido)phenyl) acrylate]"
< 5.00,+ (‘+’ means Cmpd/Fex > 100),"CN(C)c1ccc(-c2ccc(CN(C(=O)C3CCCCC3)c3cccc(/C=C/C(=O)O)c3)cc2)cc1 [compound 88, (E)-3-(3-(N-((4′-(dimethylamino)-[1,1′-biphenyl]-4-yl)methyl)cyclohexanecarboxamido)phenyl)acrylic acid]"
